Values joined by “and” are separate entries in the source; they are usually repeats but may differ in a detail not shown here. Equal values may be shown once. Read-outs that look alike come from different tables or passages of the source.
Key:
SARS-CoV-2 = conditions: Phase 2a and Phase 2b studies; cited from earlier work
in vitro [1] = conditions: female, BALB/cAJcl, mouse, serum
in vitro [2] = conditions: male, Syrian, hamster, serum
[3] = system: SARS-CoV-2 hCoV-19/Japan/TY/WK-521 strain; test: microbe, parasite or virus in culture; format: cell-based; conditions: read-out: CPE EC50
SARS-CoV-2 Omicron BA.2 = system: SARS-CoV-2 Omicron BA.2; parameters: species or system Syrian hamsters; conditions: hamster, in vivo
[4] = system: SARS-CoV-2 Omicron BA.1 strain (hCoV-19/Japan/TY38-873/2021); format: cell-based; conditions: read-out: Viral titre EC90
[5] = system: SARS-CoV-2 Delta strain (hCoV-19/Japan/TY11-927/2021); format: cell-based; conditions: read-out: Viral titre EC90
[6] = BALB/cAJcl, mouse, in vivo
[7] = Protein binding of nirmatrelvir in hamster serum by equilibrium dialysis; format: in vitro ADME, Syrian hamsters; conditions: male, Syrian, pH 7.4
[8] = Protein binding of nirmatrelvir in mouse serum by equilibrium dialysis; format: in vitro ADME, BALB/cAJcl mice; conditions: female, BALB/cAJcl, pH 7.4
[9] = Severe acute respiratory syndrome coronavirus 2, HEK-293T, 72 h

For `Cn1cnc(Cn2c(=O)[nH]/c(=N\c3cc4cn(C)nc4cc3Cl)n(Cc3cc(F)c(F)cc3F)c2=O)n1` [Ensitrelvir, ensitrelvir fumaric acid], the “Viral titres in nasal lavage fluid” value (SARS-CoV-2) is given as “significantly reduced viral titres”, the fraction unbound (in vitro [1]) is given as 0.024 and the fraction unbound (in vitro [2]) is given as 0.017. For the same compound, the EC50 [3, 9] was 0.027 ± 0.002 µM, the “Antiviral activity in the lungs (viral titres)” value (SARS-CoV-2 Omicron BA.2) was “failed to show antiviral activity” and the “Antiviral activity in the nasal turbinates compared with that of nirmatrelvir” value (SARS-CoV-2 Omicron BA.2) was “greater antiviral activity”. For the same compound, the “Lowering of lung viral titres compared with 750/250 mg/kg nirmatrelvir” value (SARS-CoV-2 Omicron BA.2) was “less effective”.

With `O=c1nc(NO)ccn1[C@@H]1O[C@H](CO)[C@@H](O)[C@H]1O` [NHC, β-D-N^4-hydroxycytidine] the EC90 [4] was 2.35 µM and 3.66 µM, the EC90 [5] was 3.83 µM and 6.72 µM and the EC50 [3] was 4 ± 3.5 µM.

In the case of `CC(C)(C)[C@H](NC(=O)C(F)(F)F)C(=O)N1C[C@H]2[C@@H]([C@H]1C(=O)N[C@H](C#N)C[C@@H]1CCNC1=O)C2(C)C` [Nirmatrelvir, nirmatrelvir], the “f-C24h unbound drug plasma concentration” value [6] is reported as 676 ± 609 ng/mL, the “f-C72h unbound drug plasma concentration” value [6] is reported as 1490 ± 430 ng/mL and the “t-C24h total plasma concentration” value [6] is reported as 1010 ± 910 ng/mL. For the same compound, the “t-C48h total plasma concentration” value [6] was 2050 ± 610 ng/mL, the “t-C72h total plasma concentration” value [6] was 2230 ± 650 ng/mL and the fraction unbound at 24 h, 4 µM [7] was 0.596. For the same compound, the fraction unbound at 24 h, 4 µM [8] was 0.669 and the EC50 [3, 9] was 0.041 ± 0.013 µM.

Work on `CCC(CC)COC(=O)[C@H](C)N[P@](=O)(OC[C@H]1O[C@@](C#N)(c2ccc3c(N)ncnn23)[C@H](O)[C@@H]1O)Oc1ccccc1` [Remdesivir, remdesivir] yielded an EC50 [3, 9] of 0.012 ± 0.002 µM.

Reference: publication PMC10068418 (Journal of Antimicrobial Chemotherapy, 2023)
